Measured values: paper PMC11755785 (Langmuir, 2025)

Columns and labels:
[1] = Flask-shaking 1-octanol/water partition, log D–pH profile fitted to Avdeef's diagram; format: physicochemical; settings: modified Britton–Robinson buffers pH 5–11.5, 298 K
Protocol: The aqueous-phase solvents were prepared by mixing 25 mM KH2PO4 and 25 mM Na2HPO4 solutions in 25 mM Pi buffer. The pH was adjusted before fixing the prescribed concentrations of the acid components of the buffer. The JP1 and JP2 buffer solutions were 10 mM sodium citrate/HCl buffer (pH 1.2) and Pi buffer (pH 6.8), which were prepared in compliance with the description for solution media for the dissolution test in Japanese Pharmacopeia (JP)-implemented international harmonization. The modified Britton–Robinson universal pH buffer comprised 28.6 mM KH2PO4, 28.6 mM HBO2, and 28.6 mM NaCl, titrated with 1 M NaOH (here, modified means elimination of barbital to cancel its interaction with organic solutes). For the partition equilibrium examination, the aqueous saturated 1-octanol phase comprised 1-octanol, which was flooded with a modified Britton–Robinson buffer adjusted to the appropriate pH in advance.
The hydrophobic drug dissolved in the aqueous saturated 1-octanol phase was mixed with an isochoric solution of the modified Britton–Robinson buffer (pH 5–11.5), saturated with 1-octanol. Thereafter, the samples in the screw-capped vials were machine-shaken at 298 K in a thermostatic chamber for 60 min and subsequently kept stationary for 60 min; the procedure corresponds to the conventional “flask-shaking” method.[41]−[43] After settling, the pH in the aqueous phase was confirmed using pH indicator strips (MColoHast pH 0–6.0, MQuant pH 7.5–14, and MQuant pH 0–14, Merck, Germany) to be that of the adjusted pH value. Aliquots (10 μL) from the 1-octanol and the aqueous layers were injected into the HPLC instrument. The 1-octanol/water partition coefficients, log P (equivalent to log KOW), and acid dissociation constants, pKa, were optimized using curve fitting, approximated by eq 1 [drawing 1] 1 which is Avdeef’s diagram[44] derived from the Henderson–Hasselbalch expression for the equilibrium between the protonated and deprotonated species. The curve-fitting procedures used the solver module of Microsoft Excel 2016 with the implemented GRG nonlinear option. Approximate curves corresponding to these optimized parameters were drawn, and the pKa and log P values for AVB, OXB, and CUR were obtained.

[2] = Phase-solubility diagram with HP-β-CD; format: physicochemical; parameters: stability constant K1:2 with HP-β-CD: unit not given here
[3] = UVA1 (365 nm) photodegradation in aqueous buffer, UV–vis spectra / RP-HPLC; format: physicochemical; settings: for UVA1 photodegradation (spectral change): 50 μM, aqueous; for diketo increase to the keto-enol decrease: UVA1 365 nm
Protocol: (§1) The samples were obtained after passage for appropriate periods and measured using an UV–vis spectrophotometer in the maximum range between 200 and 700 nm (arranged on demand) from long wavelengths toward short wavelengths to avoid unnecessary irradiation of the UV region. To obtain HPLC chromatograms, aliquots of the UV-irradiated solution were obtained by pipetting at 0, 1/5, 1/2, 1, 2, 3, 4, 24, 48, 72, 96, 120, 144, and 168 h for AVB and at 0, 1, 2, 3, and 18 h for CUR. To obtain those of OXB in the absence or presence of β-CD, the invariable samples were certified at 0 and 48 h. For the samples in acetonitrile aqueous solution or methanol aqueous solution at a ratio of 7:3, the time evolution of the UVA1 irradiated solution was examined under similar conditions.

[4] = Photostability under solar light, UV–vis spectra; format: physicochemical; settings: solar light 4 h; 50 μM; presence or absence of β-CD
Protocol: The photostability of the drug under solar light was evaluated using UV–vis spectral measurements. Sample solutions were exposed to solar light outdoors at a sunny location on a latitude of 35.92° N and a longitude of 139.91° E for 4 h, from 12:00 to 16:00, at an average temperature of 284.55 K.

[5] = UVA1 (365 nm) photodegradation in isochoric acetonitrile/water solvent; format: physicochemical; settings: UVA1 365 nm, 25 μM
Protocol: as §1

[6] = 1H NMR titration of keto-enol and diketo tautomeric species; format: physicochemical
Protocol: ^1H NMR measurements were conducted using a 400 MHz NMR spectrometer (JNM-ECZ 400 S, Japan Electronics Co., Ltd., Tokyo, Japan). Sample solutions were prepared using D2O and methanol-d4 as the protic solvent, acetonitrile-d3 as the aprotic solvent, and their mixtures, with sample concentrations exceeding 1.5% (w/v). The chemical shifts of the samples were calibrated using the internal tetramethylsilane (TMS) signal as the zero point, whereas the solvent signals in the literature served as reference points. When sodium salts were required, the neutral AVB species in D2O were dissolved in equimolar amounts of aqueous NaOH and methanol-d4, followed by drying under reduced pressure in a rotary evaporator and heating to dryness below Tm of the sodium salts. The formation of sodium salts was confirmed by measuring Tm using a differential scanning calorimeter (DSC8230, Rigaku Co., Ltd., Tokyo, Japan).
In the one-dimensional (1D) ^1H NMR spectra, the integral intensities correspond to the relative stoichiometry of protons for the species, except for the signals assigned to the stable isotopes of deuterated solvents. We could recognize the aromatic proton signals of AVB, but the corresponding signals sometimes overlapped between its keto-enol and diketo species, depending upon the solvent composition. The signals of the aromatic protons at the para positions to the keto/enol substituents were neglected because of the high probability of overlap, in which the chemical shift drifts, Δδ, related to the shielding effect are not noticeably accompanied by the electronic states in the keto/enol substituents.
We chose the signals of the aromatic protons at the ortho positions and the aliphatic protons at the ortho substituents (tert-butyl and methoxy groups) to keto/enol substituents and measured their integral intensities. Using the simultaneous equations built as linear combinations of integral values for the isolated and overlapping signals, we determined the molar ratio of the keto-enol and diketo species.

[7] = Molar absorption coefficients of 270 and 360 nm peaks (UV–vis calibrated by NMR molar ratio); format: physicochemical
Text: From NMR titration, the diketo and enol forms were expected to be 15.3 and 84.7%, respectively. Therefore, the abscissae of the regression lines were condensed to the species contents, leading to the molar absorption coefficients (i.e., absorbance gradients to the molarity) for the diketo and keto-enol forms being approximately 8.1 × 10^7 and 4.3 × 10^7 L/mol. Figure S13 confirms that the molar absorption coefficients for the diketo and keto-enol forms in the isochoric acetonitrile/water solvent were approximately 13.8 × 10^7 and 3.6 × 10^7 L/mol, respectively. The obtained parameters allowed the absorbance to be converted into AVB molarity.

[8] = cited from earlier work
[9] = regression with 2-order equation, pH 6.8
[10] = 70% methanol (methanol-d4/D2O = 7:3)
[11] = isochoric acetonitrile/water solvent

Substance: p-tert-butyl-p-methoxydibenzoylmethane [AVB]
- acid dissociation constant, pKa ([1]; from log D–pH curve fitting): 8.59
- 1-octanol/water partition coefficient, log P ([1]; neutral form, curve fitting): 4.27
- stability constant K1:2 with HP-β-CD ([2]; 25 mM Pi/NaOH buffer pH 6.8, 298 K, Figure 2): 40.4
- stability constant K1:1 with HP-β-CD ([2]; 25 mM Pi/NaOH buffer pH 6.8, 298 K, Figure 2, in M-1 (unit assumed)): 90.3
- stability constant K1:1 with HP-β-CD (equimolar complex) [2, 9]: 90.3 L/mol
- stability constant K1:2 with HP-β-CD (1:2-ratio complex) [2, 9]: 40.4 L^2/mol^2
- UVA1 photodegradation (spectral change) ([3]; absence of β-CD): gradually photodegraded
- UVA1 photodegradation (spectral change) ([3]; presence of β-CD): insignificantly degraded
- diketo increase to the keto-enol decrease ([3]; 25 μM β-CD): 20.1%
- diketo increase to the keto-enol decrease ([3]; 4 mM β-CD): 23.9%
- diketo increase to the keto-enol decrease ([3]; no β-CD): 19.3%
- stability under solar light compared to UVA1 irradiation [4]: no significant changes in stability
- effect of equimolar and 4 mM β-CD on photodegradation velocity / first-order rate [5]: reduced the photodegradation velocity
- molar ratio of diketo species [6, 10]: 15.3%
- molar ratio of keto-enol species [6, 10]: 84.7%
- molar ratio of diketo species [6, 11]: 9.3%
- molar ratio of keto-enol species [6, 11]: 90.7%
- molar absorption coefficient, diketo form (270 nm) ([7]; isochoric acetonitrile/water): approximately 13.8 × 10^7 L/mol
- molar absorption coefficient, keto-enol form (360 nm) ([7]; isochoric acetonitrile/water): ~3.6e+07 L/mol
- molar absorption coefficient, keto-enol form (360 nm) ([7]; methanol/H2O = 7:3): ~4.3e+07 L/mol
- log Kow ([8]; Chart 1): 4.51
- reported log P [8]: 4.51
- reported pKa [8]: 9.7
- partition coefficient log KOW ([8]; introduction, reference not given): 4.51
